Results published in patent US4388311A, “Method for the induction of menses” (G. D. Searle & Co., priority 1982, dated 1983).
Values joined by “and” are separate entries in the source; they are usually repeats but may differ in a detail not shown here. Equal entries are not always repeated.

What was measured:
[1] = test system: pregnancy in rats; test: Pregnancy termination in rats, compounds administered intragastrically on day 10 of pregnancy (Table 3); assay type: in vivo, rat; conditions: autopsy day 14
Method: (§1) The following tables list the results for a compound of Formula IV as compared with a control of previously known 2α-cyano-17β-hydroxy-3-oxo-4,4,17α-trimethylandrost-5-end(Cyanoketone) for termination of pregnancy.
(§2) ^1 Compounds were administered intragastrically once daily on days 10
of pregnancy in a vehicle consisting of PEG400, propylene glycol and 100
percent ethanol (50:40:10, v:v:v). Serum for progesterone determination
was drawn on day 11 of pregnancy, 24 hours after the initial injection of
compound. The animals were autopsied on day 14 of pregnancy.

[2] = test system: pregnancy in rats; test: Pregnancy termination in rats, compounds administered intragastrically for four days (Table 1); assay type: in vivo, rat; conditions: for Serum Progesterone ng/ml + S.E. / Serum Progesterone (Percent Control): serum day 11, 24 hours after initial injection
Method: as §1, §2
through 13 of pregnancy in a vehicle consisting of PEG400, propylene
glycol and 100 percent ethanol (50:40:10, v:v:v). Serum for progesterone
determination was drawn on day 11 of pregnancy, 24 hours after the initia
injection of compound. The animals were autopsied on day 14 of pregnancy.

[3] = 16 mg/kg intragastrically once on day 10 of pregnancy
[4] = 32 mg/kg intragastrically once on day 10 of pregnancy
[5] = 1 mg/kg/day intragastrically once daily days 10-13 of pregnancy, autopsy day 14
[6] = 2 mg/kg/day intragastrically days 10-13 of pregnancy
[7] = 2 mg/kg/day intragastrically once daily days 10-13 of pregnancy, autopsy day 14
[8] = 4 mg/kg/day intragastrically days 10-13 of pregnancy, 4 mg/kg/day
[9] = 4 mg/kg/day intragastrically once daily days 10-13 of pregnancy, autopsy day 14, 4 mg/kg/day
[10] = 8 mg/kg/day intragastrically days 10-13 of pregnancy
[11] = 8 mg/kg/day intragastrically once daily days 10-13 of pregnancy, autopsy day 14
[12] = 16 mg/kg/day intragastrically days 10-13 of pregnancy
[13] = 16 mg/kg/day intragastrically once daily days 10-13 of pregnancy, autopsy day 14
[14] = 32 mg/kg/day intragastrically days 10-13 of pregnancy
[15] = 32 mg/kg/day intragastrically once daily days 10-13 of pregnancy, autopsy day 14
[16] = 64 mg/kg/day intragastrically days 10-13 of pregnancy
[17] = 64 mg/kg/day intragastrically once daily days 10-13 of pregnancy, autopsy day 14
[18] = 128 mg/kg/day intragastrically days 10-13 of pregnancy
[19] = 128 mg/kg/day intragastrically once daily days 10-13 of pregnancy, autopsy day 14

SMILES: CC1(C)C(=O)[C@H](C#N)C[C@@]2(C)C1=CC[C@@H]1[C@@H]2CC[C@@]2(C)[C@H]1CC[C@]2(C)O [Cyanoketone, 2α-cyano-17β-hydroxy-3-oxo-4,4,17α-trimethylandrost-5-end]
- Adrenal Wt. mg + SE [1, 3]: 61.3 + 3.0 mg
- Fetal Viability: Normal Fetuses/Implantation Sites [1, 3]: 8/108
- Fetal Viability: Normal Fetuses/Implantation Sites (Percent) [1, 3]: 7%
- Number of Rats Pregnant/Number of Rats Treated [1, 3]: 1/9
- Number of Rats Pregnant/Number of Rats Treated (Percent) [1, 3]: 11%
- Adrenal Wt. mg + SE [1, 4]: 60.3 + 1.6 mg
- Fetal Viability: Normal Fetuses/Implantation Sites [1, 4]: 10/106
- Fetal Viability: Normal Fetuses/Implantation Sites (Percent) [1, 4]: 9%
- Number of Rats Pregnant/Number of Rats Treated [1, 4]: 1/10
- Number of Rats Pregnant/Number of Rats Treated (Percent) [1, 4]: 10%
- Serum Progesterone ng/ml + S.E. ([2]; 1 mg/kg/day intragastrically days 10-13 of pregnancy): 47.3 + 3.5 ng/ml
- Adrenal Wt. mg + SE [2, 5]: 74.9 + 4.1 mg
- Fetal Viability: Normal Fetuses/Implantation Sites [2, 5]: 49/54
- Fetal Viability: Normal Fetuses/Implantation Sites (Percent) [2, 5]: 91%
- Number of Rats Pregnant/Number of Rats Treated [2, 5]: 5/5
- Number of Rats Pregnant/Number of Rats Treated (Percent) [2, 5]: 100%
- Serum Progesterone (Percent Control) [2, 6]: 111 Percent Control
- Serum Progesterone ng/ml + S.E. [2, 6]: 52.5 + 3.7 ng/ml
- Adrenal Wt. mg + SE [2, 7]: 77.1 + 5.3 mg
- Fetal Viability: Normal Fetuses/Implantation Sites [2, 7]: 61/84
- Fetal Viability: Normal Fetuses/Implantation Sites (Percent) [2, 7]: 73%
- Number of Rats Pregnant/Number of Rats Treated [2, 7]: 6/7
- Number of Rats Pregnant/Number of Rats Treated (Percent) [2, 7]: 86%
- Serum Progesterone (Percent Control) [2, 8]: 75 Percent Control and 72 Percent Control
- Serum Progesterone ng/ml + S.E. [2, 8]: 35.5 + 6.2 ng/ml and 33.8 + 3.8 ng/ml
- Adrenal Wt. mg + SE [2, 9]: 75.0 + 3.5 mg and 76.9 + 3.7 mg
- Fetal Viability: Normal Fetuses/Implantation Sites [2, 9]: 0/92 and 44/97
- Number of Rats Pregnant/Number of Rats Treated [2, 9]: 1/8 and 5/8
- Serum Progesterone (Percent Control) [2, 10]: 64 Percent Control
- Serum Progesterone ng/ml + S.E. [2, 10]: 30.2 + 3.8 ng/ml
- Adrenal Wt. mg + SE [2, 11]: 65.7 + 2.5 mg
- Fetal Viability: Normal Fetuses/Implantation Sites [2, 11]: 13/110
- Fetal Viability: Normal Fetuses/Implantation Sites (Percent) [2, 11]: 12%
- Number of Rats Pregnant/Number of Rats Treated [2, 11]: 3/10
- Number of Rats Pregnant/Number of Rats Treated (Percent) [2, 11]: 30%
- Serum Progesterone (Percent Control) [2, 12]: 88 Percent Control
- Serum Progesterone ng/ml + S.E. [2, 12]: 41.4 + 7.1 ng/ml
- Adrenal Wt. mg + SE [2, 13]: 74.5 + 3.1 mg
- Fetal Viability: Normal Fetuses/Implantation Sites [2, 13]: 25/103
- Fetal Viability: Normal Fetuses/Implantation Sites (Percent) [2, 13]: 24%
- Number of Rats Pregnant/Number of Rats Treated [2, 13]: 4/10
- Number of Rats Pregnant/Number of Rats Treated (Percent) [2, 13]: 40%
- Serum Progesterone (Percent Control) [2, 14]: 67 Percent Control
- Serum Progesterone ng/ml + S.E. [2, 14]: 31.5 + 6.7 ng/ml
- Adrenal Wt. mg + SE [2, 15]: 66.4 + 3.3 mg
- Fetal Viability: Normal Fetuses/Implantation Sites [2, 15]: 19/101
- Fetal Viability: Normal Fetuses/Implantation Sites (Percent) [2, 15]: 19%
- Number of Rats Pregnant/Number of Rats Treated [2, 15]: 2/9
- Number of Rats Pregnant/Number of Rats Treated (Percent) [2, 15]: 22%
- Serum Progesterone (Percent Control) [2, 16]: 40 Percent Control
- Serum Progesterone ng/ml + S.E. [2, 16]: 19.0 + 3.7 ng/ml
- Adrenal Wt. mg + SE [2, 17]: 83.5 + 4.8 mg
- Fetal Viability: Normal Fetuses/Implantation Sites [2, 17]: 24/128
- Fetal Viability: Normal Fetuses/Implantation Sites (Percent) [2, 17]: 19%
- Number of Rats Pregnant/Number of Rats Treated [2, 17]: 2/11
- Number of Rats Pregnant/Number of Rats Treated (Percent) [2, 17]: 18%
- Serum Progesterone (Percent Control) [2, 18]: 94 Percent Control
- Serum Progesterone ng/ml + S.E. [2, 18]: 44.3 + 5.3 ng/ml
- Adrenal Wt. mg + SE [2, 19]: 72.0 + 2.5 mg
- Fetal Viability: Normal Fetuses/Implantation Sites [2, 19]: 85/99
- Fetal Viability: Normal Fetuses/Implantation Sites (Percent) [2, 19]: 85%
- Number of Rats Pregnant/Number of Rats Treated [2, 19]: 8/9
- Number of Rats Pregnant/Number of Rats Treated (Percent) [2, 19]: 89%
